Source: patent US6759385B1, “Methods to treat undesirable immune responses” (Regents of the University of Minnesota, priority 1997, dated 2004)

What was measured:
[1] = Distribution in the respiratory tract of solutions administered nasally; type: in vivo, mouse; conditions: 25 μl of 4% solution into nostrils, 10-15 minutes
Procedure: Distribution in the Respiratory Tract of Solutions Administered Nasally. To determine which parts of the mouse respiratory system came in contact with solutions given nasally, a solution of ethidium bromide was employed. Ethidium bromide is absorbed through the mucosal lining of the respiratory tract and fluoresces brightly under U.V. light. Two mice were anesthetized and 25 μl of a 4% ethidium bromide solution in PBS was instilled into the nostrils. Ten-fifteen minutes later the animals were sacrificed by cervical dislocation. Their nasal cavities, larynx, trachea, bronchi and lungs were dissected, washed in PBS and examined under U.V. light for ethidium bromide staining.

[2] = tested on: CD4+ cells of MG patients; assay: Response of CD4+ T cells of MG patients to synthetic human AChR peptides; type: cell-based; conditions: irrespective of HLA class II type
Excerpt: Several studies have identified sequences of the human AChR α subunit recognized by T cells in MG patients. To determine whether the CD4^+ cells recognizing those immunodominant and/or universal epitope sequences can drive the synthesis of pathogenic anti-AChR antibodies, and how the ability of the different sequence regions of the AChR to interact with different HLA DR molecules correlates with the presence of universal CD4^+ epitopes, synthetic peptides based on the amino acid sequence of the human α subunit of AChR (Noda et al., Nature, 305, 818 (1983); Schoepfer et al., FEBS Lett., 226, 235 (1981)) were prepared. The peptides were approximately 20 residues long, a length that compares with that of naturally processed class II-restricted epitopes, which are 9-14 residues. […] The peptides overlapped by 5-10 residues to reduce the risk of missing epitopes “broken” between peptides.
The response to individual overlapping synthetic AChR peptides spanning the sequence of each AChR subunit, of unselected blood […], and of CD4^+ T cell lines enriched with AChR-specific cells by culture in vitro with ACHR antigens, was tested. The use of those two cell populations has different advantages and limitations. AChR-specific CD4+ lines have strong, consistent responses to individual peptides that allow a clear-cut assessment of their epitope repertoire. However, they may have an epitope repertoire different from that of the original CD4^+ population due to biased clonal propagation in vitro. Also, denatured forms of the antigen such as synthetic and biosynthetic peptides, which are commonly used for propagation of CD4+ cells specific for rare antigens, may be processed into peptide epitopes different from those obtained from processing of the native antigen in vivo and may expand […] irrelevant for the immune process in vivo. […]

serum anti-TAChR Ab = assay: Anti-TAChR IgG and IgG1 radioimmunoprecipitation assay (Example IV); type: in vivo, mouse; conditions: s.c. tolerization, prevention protocol
Procedure: Anti-TAChR Ab assay. Sera was obtained from each mouse after each clinical testing and at the end of the observation period (12 weeks after beginning of the TAChR immunization). The serum concentration of anti-TAChR IgG and IgGI was determined by radioimmunoprecipitation assay, using TAChR solubilized in Triton X-100 and labeled by the binding of ^125I-α-BTX (Bellone et al., 1991a). As a secondary Ab, either rabbit anti-mouse IgG produced, or goat anti-mouse IgG1 (Sigma, St. Louis, Mo.), was used. The anti-TAChR Ab concentration is expressed as μM precipitated ^125I-α-BTX binding sites.
Two types of experiments were carried out. In one of them the total anti-TAChR Ab in the sera of individual mice, obtained 8, 10 and 12 weeks after the first TAChR immunization, was determined. In the other, the anti-TAChR IgG1 concentration was determined, as well as the total anti-TAChR IgG concentration, in sera obtained at the end of the observation period. For this second assay pooled sera from five mice that had received identical treatments was used.

[3] = tested on: EMG in B6 mice immunized with TAChR; assay: Subcutaneous tolerization, prevention protocol, EMG symptoms (Example IV); type: in vivo, mouse; conditions: s.c. 10 μg/injection
Procedure: (§1) B6 mice (Jackson Laboratory, Bar Harbor, Me.) were injected s.c. with 100 μl of PBS containing increasing amounts of a pool of the same amount in weight of each of the three epitope peptides Tα150-169, Tα180-200 and Tα360-378 (‘peptide pool’), or 200 μg of Tα150-169 alone, or 100 μl of PBS containing 0.1% Triton X-100 and 10 μg of solubilized TAChR. Two different treatment schedules were used, referred to as prevention and post-priming protocols. In the prevention protocol, the peptides or solubilized TAChR were administered twice per week for 14 weeks, starting 2 weeks before the beginning of the immunization with TAChR. In the post-priming protocol, peptides or solubilized TAChR were administered twice per week for […], starting 8 weeks after the beginning of the TAChR immunization. Control mice received 100 μl of peptide-free PBS, following the same schedules.
(§2) Immunization 8-10 week old mice were immunized by s.c. injections, along the back and at the base of the tail, of TAChR (a total of 50 μg in 100 μl of PBS for each immunization) emulsified in an equal volume of CFA for the first injection, and IFA for the following two boosts. The mice were injected for a total of three times at 3-4 week intervals. At the end of the observation period, the mice received a third boost, and were sacrificed 5-7 days later. Control mice were injected with clean PBS in the appropriate adjuvant.
(§3) Evaluation of the symptoms of EMG The EMG symptoms were quantified using a forced exercise test sensitized by i.p. injection of a minute amount of pancuronium bromide (0.03 mg/kg) just before the test (Karachunski et al., 1995). The mouse hangs from a grid suspended above a soft padding, and the time it takes the mouse to fall three times (‘holding time’) was measured. The test is parametric, and gives a quantitative assessment of the mouse weakness. The myasthenic nature of the weakness was verified by injecting i.p. edrophonium chloride (Reversol, Organon, West Orange, N.J.), which is a cholinesterase inhibitor. […] The mice were tested without knowledge of their treatment.
The holding time of normal mice was 10.4±2.1 minutes (n=99). Mice with holding times of 8 minutes or longer were considered normal. Mice with holding times less than 6.2 minutes (the holding time of normal mice minus two SD) were considered to have fully developed EMG. Holding times of 6.2-8 minutes were considered to potentially indicate initial EMG. Normal or sham-immunized mice had occasionally holding times of 6.2-8 minutes, but never less than 6.2 minutes. Paralyzed mice and mice that died of respiratory paralysis are indicated as having holding time of 0 minutes.

[4] = tested on: established EMG in B6 mice; assay: Subcutaneous treatment, post-priming protocol, established EMG (Example IV); type: in vivo, mouse
Procedure: as §1, §2
as §3, with “treatment. […]” for “treatment.”

Which staining of bronchi [1] does the source give for `CC[n+]1c(-c2ccccc2)c2cc(N)ccc2c2ccc(N)cc21` [ethidium bromide] here?
Its staining of bronchi is “increasingly weaker”.

What about the “staining of lung parenchyma” value [1] of the same compound?
The value was “only weak focal signals”.

What about the “staining of nostrils, larynx and trachea” value [1] of the same compound?
Its value is “brightly stained”.

With “peptide α304-322: synthetic sequence of the human AChR α subunit, universal epitope (STHVMPNWVRKVFIDTIPN; UniProt P02708 324-342, looked up, fragment)” as the compound, how does the “recognition by CD4+ cells of MG patients” value [2] read?
Its value is “recognized by the majority of the patients”.

For “solubilized TAChR: Torpedo californica acetylcholine receptor purified from electric organ, solubilized in Triton X-100”, which “effect on anti-TAChR Ab synthesis” value (serum anti-TAChR Ab) is on record?
The value was “delayed but did not ultimately affect”.

And the “protection from EMG” value [3]?
The value was “protected from EMG to levels comparable”.

And the “mice with clear EMG weakness” value ([3]; at 12 weeks)?
Its value is “one of 12”.

What about the “mice with holding times of 6.2-8 minutes” value ([3]; at 12 weeks) of the same compound?
The value was “two mice”.

And the “mice with holding times of 6.2 or less” value ([4]; at 44 weeks, s.c. post-priming protocol)?
The value was 80%.

What about the “EMG frequency after the s.c. treatment had started” value ([4]; s.c. without adjuvant, post-priming protocol) of the same compound?
The value was “very high EMG frequency”.

Which “recognition by CD4+ cells of MG patients” value [2] does the source give for “α101-137: human AChR α subunit sequence region covered by peptides α101-120 and α118-137 (AIVKFTKVLLQYTGHITWTPPAIFKSYCEIIVTHFPF; UniProt P02708 121-157, looked up, fragment)” here?
Its value is “recognized by the majority of the patients”.

For “α403-437: carboxyl-terminal human AChR α subunit sequence covered by peptides α403-421 and α419-437 (AMVMDHILLGVFMLVCIIGTLAVFAGRLIELNQQG; UniProt P02708 423-457, looked up, fragment)”, which “recognition by CD4+ cells of MG patients” value [2] is on record?
Its value is “recognized by the majority of the patients”.
